What all share (assay): NCI-60 cell line screen, 48 h
Assay [1] relates to BT-549 breast.
Assay [2] has as its system HCT-116 colon.
The subject of assay [3] is HCT-15 colon.
The test system of assay [4] is NCI-H522 lung.
Assay [5] concerns OVCAR-4 ovarian.
The test system of assay [6] is SK-MEL-2 melanoma.
For assay [7], the system named is SK-OV-3 ovarian.
Assay [8] concerns SR leukemia.
For assay [9], the system named is SW-620 colon.
Assay [10] concerns TK-10 renal.

Several values for one entry are separate records, joined by “and”; a condition that tells them apart may be missing. Identical values can stand only once.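 These data come from cells grown in 96-well plates and exposed to compound for 48 hours at five concentrations. GI50 is the concentration that inhibits growth by half. The concentration for full growth arrest is given as TGI.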 *1 amine or outer side, *2 acyl side, *3 side chain or, on linkers, in order; H or OH if unused. Where a SMILES comes first, the peptide text is derived from it. Bridges are numbered along the chain shown (N, C = ends). [ ]: non-standard residue; d: D form. The star is where a group is joined. Phe(3-Me) = Cc1cccc(C[C@H](N)C(=O)O)c1; NH(4-Cl-2-F-phenyl) = Fc1cc(Cl)ccc1N*; Pro(4R-Me) = C[C@H]1CN[C@H](C(=O)O)C1; Propanoyl(3-NMe2) = CN(C)CCC(=O)*; Hyp = O=C(O)[C@@H]1C[C@@H](O)CN1; aThr = C[C@H](O)[C@H](N)C(=O)O; Pip = O=C(O)[C@@H]1CCCCN1; CO = O=C([*:1])[*:2] Bounds are passed on as bounds.

Turning to `CC(C)[C@@H]1CC[C@@H]2[C@@H]1[C@H](OC(=O)/C=C/c1ccccc1)[C@]1(C(C)C)C[C@@H](OC(=O)CO)[C@@]2(C)O1`, the GI50 in assay [1] is 0.0375 µM; in assay [2], 5.79 µM; in assay [3], 4.72 µM; in assay [4], 6.19 µM; in [5], 5.15 µM; in assay [6], 7.71 µM. Besides, the GI50 in [7] is 10.3 µM; in assay [8], 7.91 µM; in assay [9] it was 6.26 µM; in [10], 6.46 µM. Further, the TGI in [1] was 4.38 µM; in [2], 11.3 µM; in [3], 10 µM; in [4] it was 13.2 µM; in assay [5], 9.93 µM; in [6], 17.6 µM. Further, the TGI stood at 32.5 µM in assay [7], 18.7 µM in [8], 12.9 µM in assay [9] and 15.4 µM in [10].
With `COc1cc(NC(N)=NCCC(C)(C)c2ccc(C(F)(F)F)cc2)ncc1C#N`, the GI50 in [1] was 1.74 µM; in [2], 1.51 µM; in assay [3], 1.53 µM; in [4], 1.44 µM; in [5], 1.82 µM; in assay [6], 1.84 µM. Also, the GI50 in assay [7] was 2.13 µM; in assay [8] it was 1.7 µM; in [9], 2.01 µM; in [10] it was 1.51 µM. Moreover, the TGI in assay [1] came to 3.21 µM; in assay [2] it was 2.9 µM; in [3], 2.9 µM; in assay [4], 2.97 µM; in assay [5], 4.12 µM; in [6], 3.38 µM. For the same compound, the TGI came out at 4.06 µM in [7], 4.06 µM in assay [8], 4.14 µM in assay [9] and 2.88 µM in [10].
For the compound `O=C(Nc1ccc(Br)cc1F)c1cc(Br)ccc1O`, the GI50 in assay [1] is 0.403 µM; in [2], 0.732 µM; in assay [3] it was 0.731 µM; in [4] it was 0.344 µM; in assay [5], 0.604 µM; in assay [6] it was 0.387 µM. In addition, the GI50 in assay [7] is 1.62 µM; in [8], 2.07 µM; in assay [9] it was 1.14 µM; in [10] it was 3.12 µM. For the same compound, the TGI in assay [1] worked out at 3.25 µM; in assay [2], 4.28 µM; in [3] it was 7.32 µM; in assay [4], 5.38 µM; in [5], 25.3 µM; in assay [6], 2.42 µM. Besides, the TGI was found to be 8.12 µM in [7], 11.8 µM in assay [8], 7.42 µM in assay [9] and 12.3 µM in assay [10].
As to `N=c1ccn2c(n1)O[C@@H]1[C@@H](O)[C@H](CO)O[C@@H]12`, the GI50 is 41.3 µM in assay [1]; 0.519 µM in [2]; 11.4 µM in [3]; 0.294 µM in assay [4]; 10.4 µM in assay [5]; 15.8 µM in [6]. The GI50 in assay [7] is 2.85 µM; in assay [8], 0.962 µM; in assay [9] it was 4.59 µM; in assay [10], over 100 µM. In addition, the TGI in [1], in assay [2], in assay [3], in assay [4], in assay [5] and in assay [6] was over 100 µM in each case. In addition, the TGI was over 100 µM in assay [7], 21 µM in assay [8], over 100 µM in [9] and over 100 µM in [10].
For `O=C(CCl)Nc1ccc2c(c1)C(=O)c1ccc(NC(=O)CCl)cc1C2=O`, the GI50 is 0.22 µM in assay [1]; 0.199 µM in assay [2]; 0.183 µM in [3]; 0.194 µM in assay [4]; 0.783 µM in assay [6]; 1.63 µM in assay [7]. Also, the GI50 in [8] was 0.0959 µM; in assay [9] it was 0.198 µM; in assay [10] it was 1.81 µM. For the same compound, the TGI in [1] was 0.857 µM; in [2], 0.768 µM; in assay [3], 0.469 µM; in [4], 0.57 µM; in [6], 3.84 µM; in [7], 7.01 µM. Besides, the TGI came out at 1.98 µM in [8], 0.493 µM in assay [9] and 7.33 µM in [10].
Turning to `CN1CCCCC1CCN1c2ccccc2Sc2ccc(S(C)=O)cc21` (configuration not stated), the TGI in assay [1], in assay [2], in [3], in [4], in assay [5] and in [6] was over 100 µM throughout. Further, the TGI in [7], in [8], in assay [9] and in assay [10] was over 100 µM throughout.
As to `Cc1nc2cc(N)c(Cl)cc2[nH]1`, the TGI in [1], in [2], in [3], in [4], in [6] and in assay [7] was over 100 µM in each case. The TGI in [8], in [9] and in [10] was over 100 µM throughout.
As for `CCN1CCN(C(=O)[C@]23CCC(C)(C)C[C@@H]2C2=CC[C@@H]4[C@@]5(C)C/C(=C/c6cccnc6)C(=O)C(C)(C)[C@@H]5CC[C@@]4(C)[C@]2(C)CC3)CC1`, the GI50 is 1.47 µM in [1]; 1.01 µM in assay [2]; 1.08 µM in assay [3]; 1.61 µM in assay [4]; 2.17 µM in [5]; 1.93 µM in assay [6]. Moreover, the GI50 in assay [7] is 4.19 µM; in assay [8] it was 0.706 µM; in [9], 1.78 µM; in assay [10], 3.86 µM. Besides, the TGI in assay [1] came out at 2.88 µM; in [2] it was 2.22 µM; in [3] it was 2.71 µM; in assay [4], 3.75 µM; in assay [5], 7.85 µM; in [6] it was 3.96 µM. For the same compound, the TGI in assay [7] is 16.8 µM; in [8], 5.1 µM; in assay [9], 3.88 µM; in [10] it was 15.4 µM.
With `O=C(O)/C=C\C(=O)Nc1ccc2c(c1)C(=O)c1cc(F)ccc1-2`, the TGI in assay [1], in assay [2], in assay [3], in assay [4], in assay [5] and in [6] was over 100 µM throughout. In addition, the TGI in assay [7], in assay [8], in assay [9] and in assay [10] was over 100 µM throughout.
Consider `O=C1c2ccccc2C(=O)c2c1ccc1c2OCO1`, for which the TGI in assay [1], in [2], in assay [3], in [4], in assay [5] and in [6] was over 100 µM throughout. Moreover, the TGI in assay [7], in [8], in [9] and in [10] was over 100 µM in each case.
As for `C[C@@]1(N2C(=O)OC[C@@H]2c2ccccc2)C(=O)N([C@H](CC(=O)N2CCC(N3CCCCC3)CC2)C(=O)NCc2cccc(C(F)(F)F)c2)[C@@H]1/C=C/c1ccccc1`, the GI50 in [1] is 3.29 µM; in assay [2], 1.93 µM; in assay [3] it was 1.79 µM; in [4], 1.86 µM; in assay [5], 2.6 µM; in assay [6] it was 2.13 µM. Besides, the GI50 was 2.09 µM in assay [7], 1.94 µM in [8], 1.98 µM in [9] and 1.8 µM in assay [10]. The TGI in assay [1] worked out at 9.33 µM; in assay [2] it was 3.51 µM; in assay [3], 3.62 µM; in [4], 3.85 µM; in [5], 9.86 µM; in [6], 4.22 µM. Moreover, the TGI amounted to 4.83 µM in [7], 4.7 µM in assay [8], 4.09 µM in [9] and 3.76 µM in assay [10].
Consider `Nc1nc2c(c3cnccc13)C(c1cccc(Cl)c1)Cc1cnccc1-2` (configuration not stated), for which the GI50 in assay [1] was 0.482 µM; in [2], 0.448 µM; in assay [3], 0.388 µM; in assay [4] it was 0.247 µM; in assay [5], 2.23 µM; in assay [6], 0.374 µM. Moreover, the GI50 was 0.51 µM in assay [7], 0.293 µM in assay [8], 0.455 µM in [9] and 0.696 µM in assay [10]. Also, the TGI in assay [1] amounted to 4.21 µM; in [2], 11.3 µM; in [3], 7.93 µM; in assay [4], 0.718 µM; in assay [5], 41 µM; in [6] it was 5.25 µM. Further, the TGI in [7] is 15 µM; in [8] it was over 100 µM; in assay [9], 17.6 µM; in [10], 13.7 µM.
For `S=C(N/N=C(/c1ccccc1)c1ccccn1)Nc1cccc(Cl)c1`, the TGI in assay [1] was 6.22 µM; in assay [2], 1.91 µM and 1.76 µM; in assay [3], 5.06 µM; in assay [4], 2.4 µM; in assay [5], 3.67 µM and 15.9 µM; in assay [6] it was 2.87 µM. The TGI in assay [7] was 2.93 µM and 3.73 µM; in assay [9] it was 2.88 µM and 5.77 µM; in assay [10] it was 2.41 µM and 6 µM. Further, the GI50 in assay [2] is 0.00475 µM; in [3], 0.142 µM; in assay [4], 1.12 µM; in assay [5], 1.1 µM; in assay [6], 0.0753 µM; in assay [7], 0.0671 µM. For the same compound, the GI50 in assay [8] is 0.00413 µM; in assay [9], 0.0444 µM; in assay [10], 0.0277 µM.
For the compound `Cc1cccc(C[C@H](NC(=O)Nc2ccc(Cl)cc2F)C(=O)N[C@@H]2C(=O)N3C[C@H](OC(=O)CCN(C)C)C[C@H]3C(=O)N3CCCC[C@H]3C(=O)N[C@@H](C)C(=O)N3C[C@H](C)C[C@H]3C(=O)O[C@H]2C)c1` ({NH(4-Cl-2-F-phenyl)-CO}-[Phe(3-Me)][aThr][Hyp](Propanoyl(3-NMe2))[Pip]A[Pro(4R-Me)]; ester 2-C), the GI50 in assay [1] is 0.526 µM; in assay [2] it was 0.408 µM; in assay [3], 1.98 µM; in assay [4], 0.495 µM; in assay [5], 0.334 µM; in [6], 0.667 µM. In addition, the GI50 in assay [7] was 0.487 µM; in [8], 0.624 µM; in [9], 0.6 µM; in assay [10], 2.16 µM. Besides, the TGI in [1] worked out at 2.48 µM; in assay [2], 1.62 µM; in [3], 4.34 µM; in assay [4], 2.47 µM; in assay [5], 2.06 µM; in assay [6] it was 2.67 µM. The TGI in [7] is 5.74 µM; in assay [8], 3.94 µM; in assay [9] it was 2.94 µM; in assay [10], 10.6 µM.
With `O=[N+]([O-])c1ccc(-c2cn(-c3ccc(Cl)cc3)cn2)cc1`, the TGI in [1] was over 100 µM; in assay [2], over 100 µM; in [3] it was over 100 µM; in assay [4], 14.4 µM; in [6] it was over 100 µM; in assay [7], 24.4 µM. The TGI in assay [8] was over 100 µM; in assay [9], over 100 µM; in assay [10], 67.5 µM.
Turning to `Cc1ccc(NC(=O)c2nc(S(C)=O)oc2-c2ccc(F)cc2)cc1Nc1nccc(-c2cccnc2)n1` (configuration not stated), the GI50 in assay [1] was 1.74 µM; in assay [2], 1.88 µM; in assay [4], 1.05 µM; in [5], 3.16 µM; in [6], 1.78 µM; in assay [7], 10.5 µM. Also, the GI50 is 0.726 µM in [8], 2.1 µM in assay [9] and 2.82 µM in assay [10]. For the same compound, the TGI came to 4.17 µM in [1]; 3.57 µM in [2]; 3.04 µM in [4]; 9 µM in [5]; 4.03 µM in assay [6]; 25.7 µM in [7]. The TGI in assay [8] is 3.79 µM; in assay [9] it was 4.01 µM; in assay [10], 6.25 µM.
